# Measured values published in patent US6531148B1, “Therapeutic agents” (Takara Shuzo Co., Ltd., priority 1998, dated 2003).
# “Also recorded” adds a separate entry of the source.
# Columns and labels:
# [1] = system: NO production induced by LPS and IFN-γ in RAW264.7 cells; assay: NO production inhibition test; format: cell-based; details: for inhibition of NO production induced by LPS and IFN-γ: NO2− in the medium, Griess' reagent
# Procedure: (1) RAW264.7 cells (ATCC TIB 71) were suspended in Dulbecco's modified Eagle's medium (Bio Whittaker, 12-917F) without phenol red containing 10% fetal bovine serum (Gibco) and 2 mM L-glutamine (Life Technologies Oriental, 25030-149) at a concentration of 3×10^5 cells/ml. 500 μl of the suspension was added to each well of a 48-well microtiter plate and the plate was incubated at 37° C. for 12 hours in the presence of 5% CO2. 10 μl of an aqueous solution containing 25 μg/ml lipopolysaccharide (LPS, Sigma, L-2012) and 500 U/ml interferon-γ (IFN-γ, sold by Cosmobio, GZM-MG-IFN), and 10 μl of the aqueous DGE solution at 250 or 500 μM were added to the well. The plate was incubated for additional 12 hours. The concentration of NO2^− produced by oxidation of NO in the medium was then measured. As control groups, a group to which LPS or IFN-γ was not added and a group to which DGE was not added were provided.
# After cultivation, 100 μl of 4% Griess' reagent (Sigma, G4410) was added to 100 μl of the medium, and the mixture was allowed to stand for 15 minutes at room temperature. The absorbance at 490 nm was then measured. NO2^− concentration in the medium was calculated with reference to a calibration curve prepared by using NaNO2 at a given concentration dissolved in the same medium as that described above. All of the measurements were carried out in triplicate.
# (2) RAW264.7 cells were suspended in Dulbecco's modified Eagle's medium without phenol red containing 10% fetal bovine serum and 2 mM L-glutamine at a concentration of 3×10^5 cells/ml. 500 μl of the suspension was placed in each well of a 48-well microtiter plate. […] The concentration of NO2^− produced by oxidation of NO in the medium was measured. […]
# After cultivation, 100 μl of 4% Griess' reagent was added to 100 μl of the culture supernatant, and the mixture was allowed to stand for 15 minutes at room temperature. The absorbance at 490 nm was then measured. NO2^− concentration in the medium was calculated with reference to a calibration curve prepared by using NaNO2 at a given concentration dissolved in the same medium as that described above.
# RAW264.7 cells were suspended in Dulbecco's modified Eagle's medium without phenol red containing 10% fetal bovine serum and 2 mM L-glutamine at a concentration of 3×10^5 cells/ml. […] The concentration of NO2^− produced by oxidation of NO in the medium was then measured. […]
# After cultivation, 100 μl of 4% Griess' reagent (Sigma, G4410) was added to 100 μl of the medium, and the mixture was allowed to stand for 15 minutes at room temperature. The absorbance at 490 nm was then measured. NO2^− concentration in the medium was calculated with reference to a calibration curve prepared by using NaNO2 at a given concentration dissolved in the same medium as that described above.
# [2] = system: prostaglandin E2 production induced by LPS in RAW264.7 cells; assay: Prostaglandin E2 production inhibition test; format: cell-based
# Procedure: RAW264.7 cells were suspended in Dulbecco's modified Eagle's medium containing 10% fetal bovine serum at a concentration of 3×10^5 cells/ml. 500 μl of the suspension was added to each well of a 48-well microtiter plate and the plate was incubated at 37° C. for 6 hours in the presence of 5% CO2. 10 μl of an aqueous solution prepared by dissolving DGE at a concentration of 0.5 mM in water and sterilizing it by filtration was added to the well. The plate was incubated for additional 0.5 or 5 hours. 10 μl of 50 μg/ml aqueous LPS solution was then added to the well. After the plate was incubated for additional 12 hours, the amount of prostaglandin E2 was measured. As control groups, a group to which LPS was not added and a group to which DGE was not added were provided.
# After cultivation, the amount of prostaglandin E2 in the culture supernatant was measured using Prostaglandin E2 ELISA Kit (Neogen, Code. 404110). All of the measurements were carried out in triplicate.
# RAW264.7 cells were suspended in Dulbecco's modified Eagle's medium without phenol red containing 10% fetal bovine serum and 2 mM L-glutamine at a concentration of 3×10^5 cells/ml. 500 μl of the suspension was added to each well of a 48-well microtiter plate and the plate was incubated at 37° C. for 12 hours in the presence of 5% CO2. 10 μl of 50 μg/ml aqueous lipoplysaccharide solution and 10 μl of an aqueous solution prepared by dissolving DGE-GSH prepared in Example 13-(1) at a concentration of 1 mM in water and sterilizing it by filtration were then added to the well. After the plate was incubated for additional 16 hours, the amount of prostaglandin E2 was measured. As control groups, a group to which LPS was not added and a group to which DGE-GSH was not added were provided.
# After cultivation, the amount of prostaglandin E2 in the culture supernatant was measured using Prostaglandin E2 ELISA Kit (Neogen, Code. 404110).
Compound,"inhibition of NO production, 5 hours pre-culture with DGE compared with 0.5 hour ([1]; DGE added before LPS and IFN-γ)",inhibition of NO production induced by LPS and IFN-γ [1],"inhibition of prostaglandin E2 production, 5 hours pre-incubation with DGE compared with 0.5 hour ([2]; DGE added before LPS)",inhibition of prostaglandin E2 production induced by LPS ([2]; ELISA),"NO2− concentration in the medium ([1]; LPS and IFN-γ, 10 μl of 1 mM DGE-GSH per 500 μl well, 16 hours, control 12.1 μM, no addition 4.6 μM)","prostaglandin E2 concentration in the medium ([2]; LPS, 10 μl of 1 mM DGE-GSH per 500 μl well, 16 hours, control 63.4 ng/ml, no addition 50.3 ng/ml)"
"O=C1C=CC(CO)OC1O [DGE, L-glycero-1,5-epoxy-1αβ,6-dihydroxy-cis-hex-3-en-2-one]",stronger inhibition of NO production,dose-dependently inhibited NO production; also recorded: exhibited an activity of inhibiting NO production,stronger inhibition of prostaglandin E2 production,inhibited the prostaglandin E2 production induced by LPS,–,–
"O=C1C=CC(CO)OC1O [κ-DGE, D-glycero-1,5-epoxy-1αβ,6-dihydroxy-cis-hex-3-en-2-one]",–,exhibited a similar activity,–,–,–,–
"5-L-glutathion-S-yl-2-hydroxy-3,7-dioxabicyclo[2.2.2]octan-1-ol [DGE-GSH]",–,–,–,–,9.4 µM,50.7 ng/mL
